From patent US20250084065A1, “INHIBITING MONOACYLGLYCEROL LIPASE (MAGL)” (Psy Therapeutics, Inc., priority 2021, published 2025)
Like-named read-outs stand apart in the source and are kept apart here. Values belong to the compound of their own block, whether it stands above or below them.

Columns and labels:
MAGL enzyme = biological target: T1, MAGL enzyme (Homo sapiens, UniProt Q99685); assay: MAGL reversible inhibition assay (return of activity after washout); assay type: biochemical; settings: for A: degree to which MAGL enzymatic activity returned following washout: pre-washout compound concentration 1 μM, relative to control without inhibitor
T1 sequence (Q99685 1-303): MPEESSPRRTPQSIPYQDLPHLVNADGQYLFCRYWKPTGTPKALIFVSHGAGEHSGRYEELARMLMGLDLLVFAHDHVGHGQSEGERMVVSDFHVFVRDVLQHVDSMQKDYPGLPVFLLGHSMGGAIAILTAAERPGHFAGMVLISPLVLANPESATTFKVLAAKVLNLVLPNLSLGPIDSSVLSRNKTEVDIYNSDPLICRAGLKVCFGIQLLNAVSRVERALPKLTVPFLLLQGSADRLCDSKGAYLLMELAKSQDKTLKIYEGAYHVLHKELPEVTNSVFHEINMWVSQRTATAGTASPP
Description: Example 24: Measuring Reversible MAUL Inhibition (IC50)
The reversible mechanism of MAGL inhibition of a test compound of Formula (I) can be determined. Flag-tagged MAGL enzyme will be immobilized on anti-Flag beads. […] Colorimetric substrate (4-NPA) will be added and the reaction monitored on a plate reader for 30 minutes to verify complete inhibition. Immobilized enzyme will then be washed thoroughly to remove the inhibitor, and fresh substrate will be added. The reaction will be monitored for an additional 30 minutes; returning enzymatic activity will indicate reversibility of inhibition.
Determining MAGL Reversible Inhibition:
MAGL enzyme was incubated for 30 minutes in the presence of 40× the IC50 concentration of inhibitor. […] Substrate was added and the reaction was monitored for 30 minutes.

[1] = Pharmacokinetic study of compounds in mice (brain exposure); assay type: in vivo, male C57BL/6 mice; settings: male, C57BL/6, mouse, oral, 5 mg/kg, Protocols B-E
Description: Example 25: Pharmacokinetic Study of Compounds in Mice
Healthy male C57BL/6 mice (8-12 weeks old) weighing between 17 to 35 g were procured from Global, India. Temperature and humidity were maintained at 22±3° C. and 30-70%, respectively and illumination was controlled to give a sequence of 12 hr light and 12 hr dark cycle. Temperature and humidity were recorded by auto-controlled data logger system. All the animals were provided laboratory rodent diet. Reverse osmosis water treated with ultraviolet light was provided ad libitum.
Protocol A: Twenty-four male mice were divided into two groups as; Group 1: 30 mg/kg/IP; Plasma and brain; Number of animals=12; Animal #1-12. Group 2: 30 mg/kg/PO; Plasma and brain; Number of animals=12; Animal #13-24. Animals in Group 1 were administered intraperitoneally with solution formulation of PSY-05-00074-001 in 5% NMP, 5% Solutol HS-15 and 90% normal saline at […] dose. Animals in Group 2 were administered orally with solution formulation of PSY-05-00074-001 in 5% NMP, 5% Solutol HS-15 and 90% normal saline at 30 mg/kg dose. Blood samples (approximately 60 μL) were collected under light isoflurane anesthesia from retro orbital plexus at 0.25, 0.5, 1, 2, 4 and 8 hr (IP and PO). Plasma samples were separated by centrifugation of whole blood and stored below −70° C. until bioanalysis. Immediately after collection of blood from intraperitoneal and oral group animals, animals were euthanized with excess CO2 and brain samples were collected from set of two mice at each time point. Brain samples were divided into two parts. Half brain samples were homogenized using ice-cold phosphate buffer saline (pH-7.4) and homogenates were stored below −70±10° C. until analysis. Total homogenate volume was three times the brain weight. Other part of brain was stored below −70±10° C. for further analysis. All samples were processed for analysis by protein precipitation using acetonitrile and analyzed with fit-for-purpose LC/MS/MS method (LLOQ-2.02 ng/mL for plasma and 6.06 ng/g for brain). Pharmacokinetic parameters were calculated using the non-compartmental analysis tool of Phoenix WinNonlin®.
Protocol B: Thirty six mice were included into the study and divided in to three groups as Group 1 (n=12), Group 2 (n=12) and Group 3 (n=12) with n=2 mice per time-point design. Animals in Group 1 were administered intravenously with solution formulation of PSY-05-00414-001 at 5 mg/kg dose. Animals in Group 2 were administered orally with solution formulation of PSY-05-00414-001 at a dose of 5 mg/kg. Animals in Group 3 were administered intraperitoneally with solution formulation of PSY-05-00414-001 at 5 mg/kg dose. The formulation vehicle for all the three groups was 5% NMP, 5% Solutol HS-15 and 90% normal saline. Blood samples (approximately 60 μL) were collected under light isoflurane anesthesia from two mice at 0.25, 0.5, 1, 2, 4 and 8 h. Plasma was harvested by centrifugation of blood and stored at −70±10° C. until analysis. After blood collection, brain was perfused and isolated at 0.25, 0.5, 1, 2, 4 and 8 h. Brain samples were dipped thrice in ice-cold phosphate buffer saline, blotted dry and cut in to two equal portion. Half-brain samples from each time-point were weighed and homogenized using ice-cold phosphate buffer saline with twice volume of brain weight making the total homogenate three volumes and stored below −70±10′° C. until analysis. Remaining half-portions of brain samples was snap freeze and kept in −70±10° C. until further confirmation from client. Plasma and brain samples were quantified by fit-for-purpose LC-MS/MS method (LLOQ: 1.01 ng/mL for plasma and 2.02 ng/mL for brain).
Protocol C: Fifty four male mice were included in study and divided in to three groups as Group 1 (n=18), Group 2 (n=18) and Group 3 (n=18) with 3 mice/time point design. […]

human MAGL = biological target: T2, human MAGL (Homo sapiens, UniProt Q99685); assay: MAGL inhibition potency assay with 4-nitrophenyl acetate (4NPA) substrate, absorbance 405 nm; assay type: biochemical; settings: read-out: MAGL Potency (Detection Method)
T2 construct: recombinant MAGL enzyme (aa 2-303 RBC, internal preparation)
T2 sequence (Q99685 2-303): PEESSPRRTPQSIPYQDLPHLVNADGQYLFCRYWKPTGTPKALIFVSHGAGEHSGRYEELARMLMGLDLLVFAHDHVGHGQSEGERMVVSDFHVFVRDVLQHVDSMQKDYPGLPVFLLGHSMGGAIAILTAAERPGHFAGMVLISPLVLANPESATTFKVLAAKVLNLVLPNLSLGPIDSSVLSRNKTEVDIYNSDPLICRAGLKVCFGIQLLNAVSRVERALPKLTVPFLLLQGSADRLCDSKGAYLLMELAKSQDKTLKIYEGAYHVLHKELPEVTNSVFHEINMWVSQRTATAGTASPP

Structure (SMILES): O=C(c1cc(O)ccc1F)N1CC2(CC(n3cc(C(F)(F)F)c(-c4ccccc4F)n3)C2)C1 (single isomer, unassigned) [Compound 473, (2-fluoro-5-hydroxyphenyl)(6-(3-(2-fluorophenyl)-4-(trifluoromethyl) 1H-pyrazol-1-yl)-2-azaspiro[3.3]heptan-2-yl)methanone]
- A: degree to which MAGL enzymatic activity returned following washout (MAGL enzyme): 41%
- AUC(0-t) [1]: 464 ng·h/mL
- Cmax [1]: 172 ng/g

Structure (SMILES): Cc1cc(C2CC3(C2)CN(C(=O)c2ccc(F)cc2OCC(F)(F)F)C3)n(-c2ccccc2C)n1 [Compound 178, [4-fluoro-2-(2,2,2-trifluoroethoxy)phenyl]{6-[3-methyl-1-(o-tolyl)-5-pyrazolyl]-2-aza-2-spiro[3.3]heptyl}methanone]
- IC50 (human MAGL; Method 2: Cayman Chemical MAGL enzyme prep, 10 nM enzyme): < 50 nM
- IC50 (human MAGL; Method 3: Reaction Biology MAGL enzyme prep, 10 nM enzyme): < 50 nM
- IC50 (human MAGL; Method 5: Cayman Chemical MAGL enzyme prep, 25 nM enzyme): < 50 nM

Structure (SMILES): O=C(Oc1ccc([N+](=O)[O-])cc1)N1CCC(C(O)(c2ccc3c(c2)OCO3)c2ccc3c(c2)OCO3)CC1 [JZL-184, reference compound]
- B: % MAGL activity returning after washout (MAGL enzyme; immediately following a 30 minute washout, relative to control (no inhibitor before washout), pre-washout 1 μM): <1%
- A: degree to which MAGL enzymatic activity returned following washout (MAGL enzyme): complete lack of return of MAGL enzymatic activity

Further lines, results first:

- A: degree to which MAGL enzymatic activity returned following washout (MAGL enzyme): 47%
Structure (SMILES): O=C(c1cc(O)ccc1F)N1CC2(CC(n3cc(C4CC4)c(-c4ccccc4F)n3)C2)C1 (single isomer, unassigned) [Compound 493, (6-(4-Cyclopropyl-3-(2-fluorophenyl)-1H-pyrazol-1-yl)-2-azaspiro [3.3]heptan-2-yl) (2-fluoro-5-hydroxyphenyl) methanone]

- A: degree to which MAGL enzymatic activity returned following washout (MAGL enzyme): 155%
Structure (SMILES): Cc1cnn(C2CC3(C2)CN(C(=O)c2cc(O)ccc2F)C3)c1-c1cc(F)ccc1Cl (single isomer, unassigned) [Compound 519, (6-(5-(2-chloro-5-fluorophenyl)-4-methyl-1H-pyrazol-1-yl)-2-azaspiro [3.3]heptan-2-yl) (2-fluoro-5-hydroxyphenyl) methanone]

- A: degree to which MAGL enzymatic activity returned following washout (MAGL enzyme): 100%
Structure (SMILES): Cc1cn(C2CC3(C2)CN(C(=O)c2cc(O)ccc2F)C3)nc1-c1cc(F)ccc1Cl [Compound 520, (6-(3-(2-chloro-5-fluorophenyl)-4-methyl-1H-pyrazol-1-yl)-2-azaspiro [3.3]heptan-2-yl)(2-fluoro-5-hydroxyphenyl) methanone]
